Source: patent publication US10029994B2, “Isoxazole hydroxamic acid compounds as LpxC inhibitors” (priority 2014, dated 2018)
Like-named read-outs stand apart in the source and are kept apart here.

Key:
P. aeruginosa LpxC = biological target: T1, P. aeruginosa LpxC (Pseudomonas aeruginosa, UniProt P47205); assay: P. aeruginosa LpxC Inhibition Assay (LC-MS/MS); format: biochemical; details: 1 nM P. aeruginosa LpxC, 30 min pre-incubation, 2 μM UDP-3-O-(R-3-hydroxydecanoyl)-GlcNAc, pH 7.5
T1 construct: made in house
T1 sequence (P47205 1-303): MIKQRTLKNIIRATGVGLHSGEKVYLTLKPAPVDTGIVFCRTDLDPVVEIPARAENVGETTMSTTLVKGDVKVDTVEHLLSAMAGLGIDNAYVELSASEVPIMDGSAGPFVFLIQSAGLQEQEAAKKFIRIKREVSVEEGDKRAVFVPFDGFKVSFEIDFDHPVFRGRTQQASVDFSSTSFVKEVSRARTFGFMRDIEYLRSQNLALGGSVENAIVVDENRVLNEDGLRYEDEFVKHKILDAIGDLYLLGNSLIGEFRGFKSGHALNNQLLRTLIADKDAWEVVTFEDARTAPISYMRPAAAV
From the text: P. aeruginosa LpxC Inhibition Assay
The P. aeruginosa LpxC protein is produced according to the general method of Hyland et al (Journal of Bacteriology 1997 179, 2029-2037: Cloning, expression and purification of UDP-3-O-acyl-GlcNAc deacetylase from Pseudomonas aeruginosa: a metalloamidase of the lipid A biosynthesis pathway). The LC-MS/MS method for quantitation of LpxC product was developed using an Agilent 1200 Capillary HPLC system coupled to an Applied Biosystems MDS Sciex 4000QTRAP mass spectrometer. Both instruments are controlled using the Applied Biosystems MDS Sciex Analyst software. LpxC reaction product (UDP-3-O—(R-3-hydroxyacyl)-glucosamine) was produced by hydrolysis of LpxC substrate catalyzed by P.a. LpxC and purified using reversed phase chromatography on a Phenomenex Luna C18(2) 4.6×50 mm column. An LpxC product calibration curve was generated to evaluate the sensitivity and dynamic range of the LC-MS/MS method. Briefly, compounds are pre-incubated with 1 nM P. aeruginosa LpxC for 30 min. at room temperature. Reactions are initiated by the addition of 2 μM UDP-3-O—(R-3-hydroxydecanoyl)-GlcNAc. Reactions are conducted in a 384-well plate with a total volume of 50 μL in each well containing 50 mM Sodium phosphate pH 7.5, 0.005% Trition X-100 for 20 min at room temperature. After quenching with 1.8% HOAc (5 μL of a 20% HOAc added to each well), reaction mixtures are analyzed using the LC-MS/MS method and peak areas are transformed into product concentration using a LpxC product calibration curve. Total activity (0% inhibition control) is obtained from reactions with no inhibitors and 100% inhibition control is the background using quenched samples before reaction starts. For IC50 determinations, peak areas are converted to percent inhibition in Microsoft Excel. Percent inhibition values are plotted vs. log compound concentration using XLfit. Data is fit to the four-parameter logistic equation using the non-linear regression algorithm in XLfit to return the IC50 and hill slope values.

P. A. PAO1 NB52019 = assay: MIC, broth microdilution (CLSI); format: cell-based, Pseudomonas aeruginosa; details: for MIC: Pseudomonas aeruginosa, read-out: P. A. PAO1 NB52019 MIC
Method: (§1) Bacterial isolates were cultivated from −70° C. frozen stocks by two consecutive overnight passages at 35° C. in ambient air on 5% blood agar (Remel, Lenexa, Kans.). Quality control strain, P. aeruginosa ATCC 27853, A. baumannii ATCC19606 and E. coli ATCC 25922 are from the American Type Culture Collection (ATCC; Rockville, Md.) and PAO1 was received from Dr. K. Poole.
(§2) Minimal Inhibitory Concentrations (MICs) were determined by the broth microdilution method in accordance with Clinical and Laboratories Institute (CLSI) guidelines (CLSI M100-S25, Performance Standards for Antimicrobial Susceptibility Testing; Twenty-fifth Informational Supplement). In brief, fresh bacterial overnight cultures were resuspended in sterile saline, adjusted to a 0.5 McFarland turbidity standard and then diluted 2000-fold in cation adjusted Mueller-Hinton Broth II (MHB; Remel BBL) to yield a final inoculum of approximately 5×10^5 colony-forming units (CFU)/mL. Two-fold serial dilutions of compounds were prepared in 100% dimethyl sulfoxide (DMSO) at 100-fold the highest final assay concentration; the resulting dilution series of compounds were diluted 1:10 with sterile water. Ten μl of the drug dilution series in 10% DMSO was transferred to microtiter wells and 90 μl of bacterial suspension was inoculated into the wells. For testing the ability of compounds to potentiate the activity of known antibiotics, the assay was modified as follows; known antibiotics were added to the bacterial inoculum at 1.1-fold the final assay concentration indicated in Table A. All inoculated microdilution trays were incubated in ambient air at 35° C. for 20 hours. Following incubation, assay plates were read in a microtiter plate reader at 600 nm and visually inspected to confirm the MIC endpoint well with the OD value. The lowest concentration of the compound that prevented visible growth was recorded as the MIC. Performance of the assay was monitored by testing ciprofloxacin against the laboratory quality control strain in accordance with guidelines of the CLSI.

E. C. ATCC 25922 = assay: MIC, broth microdilution (CLSI); format: cell-based, Escherichia coli; details: for MIC: Escherichia coli, ATCC25922, 20 h, read-out: E. C. ATCC 25922 MIC
Method: as §1, §2

E. C. ATCC 29522 = assay: MIC in the presence of sub-inhibitory rifampicin (potentiation/synergy); format: cell-based, Escherichia coli; details: +2 μg/ml rifampicin (RIF); broth microdilution, 35° C., 20 hours
Method: as §1, §2

A. B. ATCC 19606 [1] = assay: MIC, broth microdilution (CLSI); format: cell-based, Acinetobacter baumannii; details: for MIC: Acinetobacter baumannii, read-out: A. B. ATCC 19606 MIC
Method: as §1, §2

A. B. ATCC 19606 [2] = assay: MIC in the presence of sub-inhibitory rifampicin (potentiation/synergy); format: cell-based, Acinetobacter baumannii; details: +2 μg/ml rifampicin (RIF); broth microdilution, 35° C., 20 hours
Method: as §1, §2

[3] = PAO1, broth microdilution, 35° C., 20 hours
[4] = broth microdilution, 35° C., 20 hours
[5] = ATCC19606, broth microdilution, 35° C., 20 hours

| Structure (SMILES) | IC50 (P. aeruginosa LpxC) [nM] | MIC (P. A. PAO1 NB52019; [3]) [µg/mL] | MIC (E. C. ATCC 25922; [4]) [µg/mL] | E. C. ATCC 29522 (+2 μg/ml RIF) MIC (E. C. ATCC 29522) [µg/mL] | MIC (A. B. ATCC 19606 [1]; [5]) [µg/mL] | A. B. ATCC 19606 (+2 μg/ml RIF) MIC (A. B. ATCC 19606 [2]) [µg/mL] | P. A. PAO1 NB52019 MIC (P. A. PAO1 NB52019; [4]) [µg/mL] | E. C. ATCC 25922 MIC (E. C. ATCC 25922; [4]) [µg/mL] | A. B. ATCC 19606 MIC (A. B. ATCC 19606 [1]; [4]) [µg/mL] | MIC (P. A. PAO1 NB52019; PAO1, 20 h) [µg/mL] | MIC (E. C. ATCC 25922) [µg/mL] | MIC (A. B. ATCC 19606 [1]; ATCC19606, 20 h) [µg/mL] |
| --- | --- | --- | --- | --- | --- | --- | --- | --- | --- | --- | --- | --- |
| CC(C)(O)C1CC(C#Cc2cc(CC[C@](C)(C(=O)NO)S(C)(=O)=O)no2)C1 (stereo partly drawn) [Compound 1.16, (R)—N-hydroxy-4-(5-((3-(2-hydroxypropan-2-yl)cyclobutyl)ethynyl)isoxazol-3-yl)-2-methyl-2-(methylsulfonyl)butanamide] | < 1 | 2 | 16 | 4 | > 64 | 4 |  |  |  |  |  |  |
| CC(C)C#Cc1cc(CC[C@](C)(C(=O)NO)S(C)(=O)=O)no1 [Compound 1.6, (R)—N-hydroxy-2-methyl-4-(5-(3-methylbut-1-yn-1-yl)isoxazol-3-yl)-2-(methylsulfonyl)butanamide] | < 1 | 0.5 | 4 | 0.125 | > 64 | 0.125 |  |  |  |  |  |  |
| C[C@@](CCc1cc(C#CC2CC(F)C2)on1)(C(=O)NO)S(C)(=O)=O (stereo partly drawn) [Compound 1.13, (R)-4-(5-((3-fluorocyclobutyl)ethynyl)isoxazol-3-yl)-N-hydroxy-2-methyl-2-(methylsulfonyl)butanamide] |  | 0.5 | 16 | 0.25 | > 64 | ≤0.06 |  |  |  |  |  |  |
| C[C@@](CCc1cc(C#CC2CCC2)on1)(C(=O)NO)S(C)(=O)=O [Compound 1.2, (R)-4-(5-(cyclobutylethynyl)isoxazol-3-yl)-N-hydroxy-2-methyl-2-(methylsulfonyl)butanamide] | < 1 | 0.125 | 2 | ≤0.06 | > 64 | ≤0.06 |  |  |  |  |  |  |
| C/C=C(/C)c1cc(CC[C@](C)(C(=O)NO)S(C)(=O)=O)no1 [Compound 4.3-2, (R,Z)-4-(5-(but-2-en-2-yl)isoxazol-3-yl)-N-hydroxy-2-methyl-2-(methylsulfonyl)butanamide] |  |  |  | 0.5 |  | 8 |  |  |  | 2 | 16 | > 64 |
| C[C@@](CCc1cc(/C(F)=C\C2CC2)on1)(C(=O)NO)S(C)(=O)=O [Compound 4.5-2, (R,E)-4-(5-(2-cyclopropyl-1-fluorovinyl)isoxazol-3-yl)-N-hydroxy-2-methyl-2-(methylsulfonyl)butanamide] |  | 8 | 64 | 2 | > 64 | 16 |  |  |  |  |  |  |
| COCC1CC(C#Cc2cc(CC[C@](C)(C(=O)NO)S(C)(=O)=O)no2)C1 (single isomer, unassigned) [Compound 1.15a] |  | 2 | 8 | 0.25 | > 64 | 0.25 |  |  |  |  |  |  |
| COCC1CC(C#Cc2cc(CC[C@](C)(C(=O)NO)S(C)(=O)=O)no2)C1 (single isomer, unassigned) [Compound 1.15b] |  |  |  | 0.25 |  | 0.5 | 2 | 4 | >64 |  |  |  |

Second part, led by results:

| IC50 (P. aeruginosa LpxC) [nM] | MIC (P. A. PAO1 NB52019; [3]) [µg/mL] | MIC (E. C. ATCC 25922; [4]) [µg/mL] | E. C. ATCC 29522 (+2 μg/ml RIF) MIC (E. C. ATCC 29522) [µg/mL] | MIC (A. B. ATCC 19606 [1]; [5]) [µg/mL] | A. B. ATCC 19606 (+2 μg/ml RIF) MIC (A. B. ATCC 19606 [2]) [µg/mL] | P. A. PAO1 NB52019 MIC (P. A. PAO1 NB52019; [4]) [µg/mL] | E. C. ATCC 25922 MIC (E. C. ATCC 25922; [4]) [µg/mL] | A. B. ATCC 19606 MIC (A. B. ATCC 19606 [1]; [4]) [µg/mL] | Structure (SMILES) | MIC (P. A. PAO1 NB52019; PAO1, 20 h) [µg/mL] | MIC (E. C. ATCC 25922) [µg/mL] | MIC (A. B. ATCC 19606 [1]; ATCC19606, 20 h) [µg/mL] |
| --- | --- | --- | --- | --- | --- | --- | --- | --- | --- | --- | --- | --- |
| < 1 | 0.25 | 4 | 0.5 | > 64 | 1 |  |  |  | C[C@@](CCc1cc(C2=CCCCC2)on1)(C(=O)NO)S(C)(=O)=O [Compound 4.8, (R)-4-(5-(cyclohex-1-en-1-yl)isoxazol-3-yl)-N-hydroxy-2-methyl-2-(methylsulfonyl)butanamide] |  |  |  |
| < 1 | 0.25 | 1 | 0.125 | > 64 | 6 |  |  |  | C[C@@](CCc1cc(C#Cc2ccc([C@H](O)CO)cc2)on1)(C(=O)NO)S(C)(=O)=O [Compound 2.7, (R)-4-(5-((4-((S)-1,2-dihydroxyethyl)phenyl)ethynyl)isoxazol-3-yl)-N-hydroxy-2-methyl-2-(methylsulfonyl)butanamide] |  |  |  |
| < 1 | 1 | 0.25 | 0.125 | > 64 | 0.5 |  |  |  | C[C@@H](O)Cc1ccc(C#Cc2cc(CCC(C)(C(=O)NO)S(C)(=O)=O)no2)cc1 (stereo partly drawn) [Compound 2.5, N-hydroxy-4-(5-((4-((R)-2-hydroxypropyl)phenyl)ethynyl)isoxazol-3-yl)-2-methyl-2-(methylsulfonyl)butanamide] |  |  |  |
| < 1 | 0.5 | 8 | 0.125 | > 64 | 1 |  |  |  | CC/C=C/c1cc(CC[C@](C)(C(=O)NO)S(C)(=O)=O)no1 [Compound 4.1, (R,E)-4-(5-(but-1-en-1-yl)isoxazol-3-yl)-N-hydroxy-2-methyl-2-(methylsulfonyl)butanamide] |  |  |  |
| < 1 | 0.5 | 2 | ≤0.06 | > 64 | 2 |  |  |  | CC(CCc1cc(C#Cc2ccc(CO)cc2)on1)(C(=O)NO)S(C)(=O)=O (stereo not drawn) [Compound 2.1, N-hydroxy-4-(5-((4-(hydroxymethyl)phenyl)ethynyl)isoxazol-3-yl)-2-methyl-2-(methylsulfonyl)butanamide] |  |  |  |
|  | 0.25 | 8 | 0.125 | > 64 | 0.5 |  |  |  | C[C@@](CCc1cc(/C=C/C2CC2)on1)(C(=O)NO)S(C)(=O)=O [Compound 4.2, (R,E)-4-(5-(2-cyclopropylvinyl)isoxazol-3-yl)-N-hydroxy-2-methyl-2-(methylsulfonyl)butanamide] |  |  |  |
